Read-outs that look alike come from different tables or passages of the source.
Target: T1, human SCD1 enzyme (Homo sapiens, UniProt O00767)
T1 sequence (O00767 1-359): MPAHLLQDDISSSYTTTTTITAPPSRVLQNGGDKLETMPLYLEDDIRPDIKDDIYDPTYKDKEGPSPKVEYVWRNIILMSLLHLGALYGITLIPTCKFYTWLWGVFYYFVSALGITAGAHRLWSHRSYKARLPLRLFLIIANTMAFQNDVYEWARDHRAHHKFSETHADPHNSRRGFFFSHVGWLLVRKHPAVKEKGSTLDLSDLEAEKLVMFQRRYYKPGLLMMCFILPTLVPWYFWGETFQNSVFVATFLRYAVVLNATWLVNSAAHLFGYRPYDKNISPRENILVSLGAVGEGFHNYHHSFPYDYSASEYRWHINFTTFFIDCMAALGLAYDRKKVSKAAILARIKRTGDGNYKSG
Test: Tritiated water release assay (conversion of radiolabeled stearoyl-CoA to oleoyl-CoA)
Assay type: biochemical
Settings: 10 μM concentration of test compounds, microsomal SCD1, 3H stearoyl CoA, 37° C. 30 minutes, percent of control reaction
Description: The in-vitro activity of the compounds of the present invention against stearoyl coenzyme desaturase was determined by following conversion of radiolabeled-stearoyl-CoA to oleoyl-CoA using human SCD1 enzyme using a previously published assay procedure with some modifications (Barbara R Talamo and Konrad Bloch, Analytical Biochemistry, 1969, 29, 300-304). This assay protocol is only illustrative and is not meant to limit to the scope of the present invention.
In this assay the microsomal SCD1 enzyme desaturates its substrate, Stearoyl CoA (purchased from American Radiochemicals Ltd.) which is tritiated at C9 and C10 positions. Test compounds were dissolved in dimethylsulfoxide and tested at 10 μM final concentration. Before substrate addition, the test compound or standard reference compound (conjugated linoleic acid at 100 μM final concentration) were pre-incubated in reaction buffer with the enzyme for 10 minutes at 30° C. with shaking. Reaction buffer was prepared as described in literature (Obukowicz et al. JPET, 1998, 287, 157-166) except that the MgCl2, ATP (purchased from Sigma) and CoA (purchased from Sigma) concentrations were changed to 4.9 mM, 7.2 mM and 0.54 mM respectively. The desaturation reaction was initiated by addition of 0.5 μCi of ^3H stearoyl CoA and incubated at 37° C. for 30 minutes with shaking. A control reaction was set without any test compound/reference inhibitor to capture maximum enzymatic activity in the assay. Inhibition of enzyme activity was calculated as a percent of this control reaction giving maximum catalysis and the results are given in Table 5.
Table 5: Tritiated water release assay at 10 μM substrate concentration *Conjugated Linoleic acid was used as a reference standard

inhibition at 10 µM (read-out: % Inhibition) [%] | SMILES | inhibition at 10 µM [%]
96 | Oc1ccc(C#Cc2ccc(N3CCC(Oc4cc(Cl)ccc4Cl)CC3)nn2)cc1 [Example 93, 4-[{6-[4-(2,5-Dichlorophenoxy)piperidin-1-yl]pyridazin-3-yl}ethynyl]phenol] | 
12 | COc1c(F)ccc(C#Cc2ccc(N3CCC(Oc4ccccc4F)CC3)nn2)c1F [Example 94, 3-[(2,4-Difluoro-3-methoxyphenyl)ethynyl]-6-[4-(2-fluorophenoxy)piperidin-1-yl]pyridazine] | 
24 | [O-][n+]1cccc(C#Cc2ccc(N3CCC(Oc4ccccc4F)CC3)nn2)c1 [Example 95] | 
30 | NC(=O)c1cccc(C#Cc2ccc(N3CCC(Oc4cccnc4)CC3)nn2)c1 [Example 96] | 
36 | Cc1cccc(C#Cc2cnc(N3CCC(Oc4ccccc4F)CC3)nc2)c1 [Example 97] | 
95 | Oc1cccc(C#Cc2cnc(N3CCC(Oc4ccccc4F)CC3)nc2)c1 [Example 98] | 
55 | CC(=O)Oc1ccc(C#Cc2ccc(NCCOc3ccccc3F)nn2)cc1 [Example 99] | 
63 | Oc1ccc(C#Cc2ccc(NCCOc3ccccc3F)nn2)cc1 [Example 100] | 
82 | CC(=O)Oc1ccc(C#Cc2ccc(N3CCC(Nc4ccccc4F)CC3)nn2)cc1 [Example 101] | 
96 | Oc1ccc(C#Cc2ccc(N3CCC(Nc4ccccc4F)CC3)nn2)cc1 [Example 102, 4-{6-[4-(2-Fluorophenylamino)piperidin-1-yl]pyridazin-3-yl}ethynylphenol] | 

Second part, the compound before the results:

SMILES | inhibition at 10 µM (read-out: % Inhibition) [%] | inhibition at 10 µM [%]
[O-][n+]1cccc(C#Cc2ccc(N3CCC(Oc4ccccc4F)CC3)nc2)c1 [Example 74] | 44 | 
CC(=O)Oc1ccc(C#Cc2ccc(N3CCC(Oc4ccccc4F)CC3)nn2)cc1 [Example 75, 4-[{6-[4-(2-Fluorophenoxy)piperidin-1-yl]pyridazin-3-yl}ethynyl]phenyl acetate] | 88 | 
Oc1ccc(C#Cc2ccc(N3CCC(Oc4ccccc4F)CC3)nn2)cc1 [Example 76, 4-(2-{6-[4-(2-Fluorophenoxy)piperidino]-3-pyridazinyl}-1-ethynyl)phenol] | 100 | 
Oc1ccc(C#Cc2ccc(N3CCC(Oc4ccccc4F)CC3)nn2)cc1 [Example 77] |  | 97
Fc1ccccc1OC1CCN(c2ccc(C#Cc3ccc(OCCN4CCCCC4)cc3)nn2)CC1 [Example 78] | 43 | 
Fc1ccccc1OC1CCN(c2ccc(C#Cc3ccc(OCCN4CCOCC4)cc3)nn2)CC1 [Example 79] | 37 | 
O=C(Oc1ccc(C#Cc2ccc(N3CCC(Oc4ccccc4F)CC3)nn2)cc1)c1ccco1 [Example 80, 4-{6-[4-(2-Fluorophenoxy)piperidin-1-yl]pyridazin-3-yl}ethynylphenyl-2-furoate] | 86 | 
Oc1ccc(C#Cc2ccc(N3CCC(Oc4ccc(Br)cc4F)CC3)nn2)cc1 [Example 81] | 95 | 
Oc1ccc(C#Cc2ccc(N3CCC(Oc4ccccc4F)CC3)nn2)cc1F [Example 82] | 98 | 
COc1cc(C#Cc2ccc(N3CCC(Oc4ccccc4F)CC3)nn2)ccc1O [Example 83, 2-Methoxy-4-{6-[4-(2-fluorophenoxy)piperidin-1-yl]pyridazin-3-yl}ethynylphenol] | 93 | 
Fc1ccccc1OC1CCN(c2ccc(C#Cc3ccc(C(F)(F)F)cc3)nn2)CC1 [Example 84, 3-[4-(2-Fluorophenoxy)piperidino]-6-[2-(4-trifluoromethylphenyl)-1-ethynyl]pyridazine] | 37 | 
CC(=O)Oc1cccc(C#Cc2ccc(N3CCC(Oc4ccccc4F)CC3)nn2)c1 [Example 85] | 97 | 
Oc1cccc(C#Cc2ccc(N3CCC(Oc4ccccc4F)CC3)nn2)c1 [Example 86, 3-(2-{6-[4-(2-Fluorophenoxy)piperidino]-3-pyridazinyl}-1-ethynyl)phenol] | 100 | 
CC(C)(C)C(=O)Oc1cccc(C#Cc2ccc(N3CCC(Oc4ccccc4F)CC3)nn2)c1 [Example 87, 3-[{6-[4-(2-Fluorophenoxy)piperidin-1-yl]pyridazin-3-yl}ethynyl]phenyl pivalate] | 27 | 
N#Cc1ccccc1OC1CCN(c2ccc(C#Cc3cccc(O)c3)nn2)CC1 [Example 88] | 95 | 
Fc1cccc(C#Cc2ccc(N3CCC(Oc4ccccc4C(F)(F)F)CC3)nn2)c1 [Example 89, 3-[2-(3-Fluorophenyl)-1-ethynyl]-6-[4-(2-trifluoromethylphenoxy)piperidino]pyridazine] | 82 | 
CC(=O)Oc1cccc(C#Cc2ccc(N3CCC(Oc4ccccc4C(F)(F)F)CC3)nn2)c1 [Example 90, 3-(2-{6-[4-(2-Trifluoromethylphenoxy)piperidino]-3-pyridazinyl}-1-ethynyl)phenyl acetate] | 95 | 
Oc1cccc(C#Cc2ccc(N3CCC(Oc4ccccc4C(F)(F)F)CC3)nn2)c1 [Example 91, 3-(2-{6-[4-(2-Trifluoromethylphenoxy)piperidino]-3-pyridazinyl}-1-ethynyl)phenol] | 100 | 
CC(=O)Oc1ccc(C#Cc2ccc(N3CCC(Oc4cc(Cl)ccc4Cl)CC3)nn2)cc1 [Example 92, 4-[{6-[4-(2,5-Dichlorophenoxy)piperidin-1-yl]pyridazin-3-yl}ethynyl]phenyl acetate] | 97 | 

Reference: patent US20080182851A1, “ACETYLENE DERIVATIVES AS STEAROYL COA DESATURASE INHIBITORS” (Glenmark Pharmaceuticals S.A., priority 2006, published 2008)
